{"source": "patent US20250177566A1", "about": "“USE OF CHEMICAL EPIGENETIC MODIFIERS TO MODULATE GENE EXPRESSION” (The University of North Carolina at Chapel Hill, priority 2022, published 2025)", "key": {"TRE3G-GFP reporter gene [1]": {"test_system": "TRE3G-GFP reporter gene", "conditions": "WT FKBP (MS2-FKBPx2), 48 hrs", "experimental": "HCT116 cells were transfected with TRE3G-GFP, dCas9, MS2-FKPB*x2, and TRE3G gRNA or NT gRNA. After 48 hrs of 10 nM SLF*-CEMa treatment, flow cytometry was performed and mean fluorescent value was collected. […] TRE3G-GFP, dCas9, MS2-FKBP*2, TRE3G gRNA or NT gRNA were transfected into HCT116 cells. The media was changed to media with 5 nM CEM207 together with 0 nM, 50 nM, 500 nM or 5000 nM of AP1867, respectively. After 48 hrs chemical exposure, flow cytometry was performed and the mean fluorescent value was measured in each group of cells. […] FIGS. 5D and 5E are dose curves of CEMa molecules activating the GFP reporter gene in HCT116 cells using WT FKBP and dCas9 as DNA binding module. HCT116 cells were transfected with dCas9, MS2-FKBPx2, TRE3G-GFP constructs, along with TRE3G gRNA or NT gRNA. Cells were treated with different concentrations of CEMa molecules for 48 hrs before flow cytometry was conducted. […] Error bars represent the standard deviation.\nTo better understand the activity of SLF*-CEMa in the WT FKBP-based GFP reporter assay, a similar dose-response assay was conducted in HCT116 cells transfected with dCas9 and MS2-FKBPx2 (FIGS. 1D and 1E).\nFlow cytometry. All flow cytometry experiments were performed with Attune Nxt as previously described. […] Significance was determined by Student's t-test."}, "CXCR4": {"test_system": "CXCR4", "experiment": "CXCR4 mRNA activation in HCT116 stably expressing dCas9 and MS2-FKBP*x2, qRT-PCR", "format": "cell-based, human", "conditions": "FIG. 2C; 5 nM; 48 hrs", "description": "To further explore the activation potential of the SLF*-CEMa, their ability to target endogenous genes was evaluated (FIGS. 2A and 2B). Lentivirus was used to establish a stable HCT116 cell line expressing dCas9 and MS2-FKBP*x2 constructs, selecting for cells with antibiotic resistance. […] All CEMs were screened for their ability to activate the CXCR4 gene at 5 nM (FIG. 2C). RNA extraction and quantitative RT-PCR (qRT-PCR) were performed after 48 hours of CEM treatment.\nTo determine the optimal treatment concentration of the SLF*-CEMa molecules in this context, HCT116 cells were treated with 1 nM, 5 nM, 25 nM, and 50 nM of CEM203, CEM207, or CEM87. […] After 48 hours, RNA extraction followed by qRT-PCR was performed to evaluate the change in mRNA expression of CXCR4 (FIG. 2D). […] To directly compare this induced activation to other CRISPR-Cas9-based epigenetic activators, dCas9-VPR and dCas9-p300 constructs were virally infected into HCT116 cells and CXCR4 activation assessed in a similar fashion (FIGS. 2A and 2B).\nTo determine the time at which SLF*-CEMa most effectively induces gene activation, CXCR4 gene expression changes over time were investigated in dCas9 and MS2-FKBP*x2 stably infected HCT116 cells. Cells were treated with either vehicle, […] (FIG. 3A). RNA extraction and qRT-PCR were performed at 12, 24, 48, 72, and 96 hrs time points (FIG. 3B).\nTo investigate if endogenous gene activation triggered by the SLF*-CEMa compounds is also reversible, HCT116 cells were treated with CEM203 (50 nM) or CEM207 (25 nM) for 24 hours after transfecting CXCR4 gRNA, and then the CEMs were removed by media exchange at various time points. […] Likewise, it was investigated whether treatment with excess AP1867 could further reverse gene activation, potentially in a more robust fashion than with washout alone if there is any remaining intracellular SLF*-CEMa. To test this, after 24 hours of SLF*-CEMa treatment, a media exchange containing 20 μM AP1867 was performed (FIGS. 3C and 3D).\nRNA extraction and qRT-PCR. All RNA extraction experiments were conducted in 12-well plate format. Culturing medium was removed, and cells were washed with 1×PBS, following with 0.05% trypsin to disassociate. After being quenched by medium and centrifuged, cells were washed with 1×PBS, and the RNA extraction was performed by using RNeasy Plus Mini kit (Qiagen, 74134). RT-qPCR was conducted by using RNA-to CT 1-step kit (Thermo Fisher Scientific, 4389986). The primer sets used in quantifying each gene can be found in Table 4."}, "TRE3G-GFP reporter gene [2]": {"test_system": "TRE3G-GFP reporter gene", "experiment": "TRE3G-GFP reporter gene activation in HCT116, dCas9 + MS2-FKBP*x2 (F36V) system, flow cytometry", "format": "cell-based, human", "design": "fold change, GFP: reference not given here", "conditions": "for fold change, GFP (Treated vs Non-Treated): FIG. 1E, 48 hours; for fold change, GFP: 48 hrs"}}, "note": "Read-outs that look alike come from different tables or passages of the source.", "data": [{"smiles": "CC[C@H](C(=O)N1CCCC[C@H]1C(=O)O[C@H](CCc1ccc(OC)c(OC)c1)c1cccc(OCC(=O)NCCOCCOCCOCCNC(=O)C[C@@H]2N=C(c3ccc(Cl)cc3)c3cc(OC)ccc3-n3c(C)nnc32)c1)c1cc(OC)c(OC)c(OC)c1", "note": "[CEM202, (1R)-1-(3-((17-((4S)-6-(4-Chlorophenyl)-8-methoxy-1-methyl-4/I-benzo[f][1,2,4]triazolo[4,3-a][1,4]diazepin-4-yl)-2,16-dioxo-6,9,12-trioxa-3,15-diazaheptadecyl)oxy)phenyl)-3-(3,4-dimethoxyphenyl) propyl (2S)-1-((S)-2-(3,4,5-trimethoxyphenyl)butanoyl) piperidine-2-carboxylate]", "values": [{"measurement": "fold change, GFP (Treated vs Non-Treated)", "setting": "TRE3G-GFP reporter gene [1]; FIG. 5D, 10 nM", "result": 0.9, "unit": "fold"}, {"measurement": "fold change, GFP (Treated vs Non-Treated)", "setting": "TRE3G-GFP reporter gene [1]; FIG. 5D, 25 nM", "result": 1.0, "unit": "fold"}, {"measurement": "fold change, GFP (Treated vs Non-Treated)", "setting": "TRE3G-GFP reporter gene [1]; FIG. 5D, 50 nM", "result": 1.1, "unit": "fold"}, {"measurement": "fold change, GFP (Treated vs Non-Treated)", "setting": "TRE3G-GFP reporter gene [1]; FIG. 5D, 100 nM", "result": 5.3, "unit": "fold"}, {"measurement": "fold change, GFP (Treated vs Non-Treated)", "setting": "TRE3G-GFP reporter gene [1]; FIG. 5D, 200 nM", "result": 11.6, "unit": "fold"}, {"measurement": "fold change, GFP (Treated vs Non-Treated)", "setting": "TRE3G-GFP reporter gene [1]; FIG. 5D, 400 nM", "result": 17.5, "unit": "fold"}, {"measurement": "fold change, GFP (Treated vs Non-Treated)", "setting": "TRE3G-GFP reporter gene [1]; FIG. 5E, 10 nM", "result": 0.9, "unit": "fold"}, {"measurement": "fold change, GFP (Treated vs Non-Treated)", "setting": "TRE3G-GFP reporter gene [1]; FIG. 5E, 25 nM", "result": 0.9, "unit": "fold"}, {"measurement": "fold change, GFP (Treated vs Non-Treated)", "setting": "TRE3G-GFP reporter gene [1]; FIG. 5E, 50 nM", "result": 1.0, "unit": "fold"}, {"measurement": "fold change, GFP (Treated vs Non-Treated)", "setting": "TRE3G-GFP reporter gene [1]; FIG. 5E, 100 nM", "result": 1.0, "unit": "fold"}, {"measurement": "fold change, GFP (Treated vs Non-Treated)", "setting": "TRE3G-GFP reporter gene [1]; FIG. 5E, 200 nM", "result": 1.0, "unit": "fold"}, {"measurement": "fold change, GFP (Treated vs Non-Treated)", "setting": "TRE3G-GFP reporter gene [1]; FIG. 5E, 400 nM", "result": 1.0, "unit": "fold"}, {"measurement": "fold change, CXCR4 mRNA (Treated vs Non-Treated)", "setting": "CXCR4", "result": 3.5, "unit": "fold"}, {"measurement": "fold change, GFP (Treated vs Non-Treated)", "setting": "TRE3G-GFP reporter gene [2]; TRE3G gRNA, 0.25 nM", "result": 1.1, "unit": "fold"}, {"measurement": "fold change, GFP (Treated vs Non-Treated)", "setting": "TRE3G-GFP reporter gene [2]; TRE3G gRNA, 0.5 nM", "result": 1.3, "unit": "fold"}, {"measurement": "fold change, GFP (Treated vs Non-Treated)", "setting": "TRE3G-GFP reporter gene [2]; TRE3G gRNA, 0.75 nM", "result": 1.3, "unit": "fold"}, {"measurement": "fold change, GFP (Treated vs Non-Treated)", "setting": "TRE3G-GFP reporter gene [2]; TRE3G gRNA, 1 nM", "result": 1.5, "unit": "fold"}, {"measurement": "fold change, GFP (Treated vs Non-Treated)", "setting": "TRE3G-GFP reporter gene [2]; TRE3G gRNA, 2.5 nM", "result": 2.8, "unit": "fold"}, {"measurement": "fold change, GFP (Treated vs Non-Treated)", "setting": "TRE3G-GFP reporter gene [2]; TRE3G gRNA, 5 nM", "result": 12.5, "unit": "fold"}, {"measurement": "fold change, GFP (Treated vs Non-Treated)", "setting": "TRE3G-GFP reporter gene [2]; TRE3G gRNA, 7.5 nM", "result": 13.9, "unit": "fold"}, {"measurement": "fold change, GFP (Treated vs Non-Treated)", "setting": "TRE3G-GFP reporter gene [2]; TRE3G gRNA, 10 nM", "result": 15.0, "unit": "fold"}, {"measurement": "fold change, GFP (Treated vs Non-Treated)", "setting": "TRE3G-GFP reporter gene [2]; TRE3G gRNA, 25 nM", "result": 22.0, "unit": "fold"}, {"measurement": "fold change, GFP (Treated vs Non-Treated)", "setting": "TRE3G-GFP reporter gene [2]; TRE3G gRNA, 50 nM", "result": 28.8, "unit": "fold"}, {"measurement": "fold change, GFP (Treated vs Non-Treated)", "setting": "TRE3G-GFP reporter gene [2]; TRE3G gRNA, 75 nM", "result": 27.1, "unit": "fold"}, {"measurement": "fold change, GFP (Treated vs Non-Treated)", "setting": "TRE3G-GFP reporter gene [2]; TRE3G gRNA, 100 nM", "result": 25.5, "unit": "fold"}, {"measurement": "fold change, GFP", "setting": "TRE3G-GFP reporter gene [2]; FIG. 5A, NT gRNA, 10 nM", "result": 0.5, "unit": "fold"}, {"measurement": "fold change, GFP", "setting": "TRE3G-GFP reporter gene [2]; FIG. 5A, TRE3G gRNA, 10 nM", "result": 8.4, "unit": "fold"}, {"measurement": "fold change, GFP", "setting": "TRE3G-GFP reporter gene [2]; FIG. 5C, NT gRNA, 0.25 nM", "result": 1.0, "unit": "fold"}, {"measurement": "fold change, GFP", "setting": "TRE3G-GFP reporter gene [2]; FIG. 5C, NT gRNA, 0.5 nM", "result": 1.0, "unit": "fold"}, {"measurement": "fold change, GFP", "setting": "TRE3G-GFP reporter gene [2]; FIG. 5C, NT gRNA, 0.75 nM", "result": 1.1, "unit": "fold"}, {"measurement": "fold change, GFP", "setting": "TRE3G-GFP reporter gene [2]; FIG. 5C, NT gRNA, 1 nM", "result": 1.0, "unit": "fold"}, {"measurement": "fold change, GFP", "setting": "TRE3G-GFP reporter gene [2]; FIG. 5C, NT gRNA, 2.5 nM", "result": 1.0, "unit": "fold"}, {"measurement": "fold change, GFP", "setting": "TRE3G-GFP reporter gene [2]; FIG. 5C, NT gRNA, 5 nM", "result": 1.1, "unit": "fold"}, {"measurement": "fold change, GFP", "setting": "TRE3G-GFP reporter gene [2]; FIG. 5C, NT gRNA, 7.5 nM", "result": 1.1, "unit": "fold"}, {"measurement": "fold change, GFP", "setting": "TRE3G-GFP reporter gene [2]; FIG. 5C, NT gRNA, 10 nM", "result": 1.2, "unit": "fold"}, {"measurement": "fold change, GFP", "setting": "TRE3G-GFP reporter gene [2]; FIG. 5C, NT gRNA, 25 nM", "result": 1.3, "unit": "fold"}, {"measurement": "fold change, GFP", "setting": "TRE3G-GFP reporter gene [2]; FIG. 5C, NT gRNA, 50 nM", "result": 1.4, "unit": "fold"}, {"measurement": "fold change, GFP", "setting": "TRE3G-GFP reporter gene [2]; FIG. 5C, NT gRNA, 75 nM", "result": 1.4, "unit": "fold"}, {"measurement": "fold change, GFP", "setting": "TRE3G-GFP reporter gene [2]; FIG. 5C, NT gRNA, 100 nM", "result": 1.4, "unit": "fold"}]}]}
